Assays:
[1] = tested on: TNFα; assay: TNFα mRNA in ischemic myocardium; assay type: in vivo, mouse (C57BL/6); conditions: evaluated at 2 h and 24 h of reperfusion, vs vehicle
Experimental: (§1) The myocardial ischemia/reperfusion surgical protocol was applied as follows. Mice were anesthetized with 2% isoflurane inhalation until anesthesia was achieved. The animals' body temperature was maintained at 37 °C throughout the surgical procedure using a heating pad. A tracheal tube was placed via tracheal intubation and the respiration rate was set at 150 strokes/min with a tidal volume of 200 μL, using Minivent ventilator for mice (Model 845, Harvard Apparatus). A 1.2 cm incision was made over the left chest. After retraction of the pectoral major and minor muscles, the fourth intercostal space was exposed. […] The mouse was then monitored during the recovery period, which was generally completed within 3 to 5 minutes. […]
(§2) Total RNA was purified from heart tissue using the TRIzol reagent according to the instructions of the manufacturer (ThermoFischer Scientific, Cat. No.: 15596018). cDNA synthesis was performed using the Applied Biosystems High Capacity cDNA Reverse Transcription Kit (ThermoFischer Scientific, Cat. No.: 4368814) from 500 ng RNA, which had been treated with DNAase I (ThermoFischer Scientific, Cat. No.: 18068015). Quantitative real-time PCR was performed with the SYBR Select Master Mix (ThermoFischer Scientific, Cat. No.: 4472903) using the manufacturer's recommendations. […]

[2] = tested on: Glut1; assay: Glut1 mRNA after I/R; assay type: in vivo, mouse; conditions: ML-264 treatment; vs I/R group treated with vehicle
Experimental: as §1, §2

[3] = tested on: IL-6; assay: IL-6 mRNA in ischemic myocardium; assay type: in vivo, mouse (C57BL/6); conditions: evaluated at 2 h and 24 h of reperfusion, vs vehicle
Experimental: as §1, §2

[4] = tested on: Ugdh; assay: Ugdh levels after I/R; assay type: in vivo, mouse; conditions: among the three groups, ML-264 treatment
Experimental: as §1, §2

[5] = tested on: myocardial ischemia-reperfusion injury in mice; assay: 2D echocardiography (cardiac function) in murine myocardial ischemia-reperfusion injury; assay type: in vivo, mouse (C57BL/6); conditions: 30 min ischemia
Experimental: Cardiac function was assessed by transthoracic echocardiography using the VisualSonics Vevo F2 system (VisualSonics, Toronto, ON). Sedation was induced by 3% isoflurane and maintained at 0.5% isoflurane during the procedure, during which the animals were placed on a heated table under a lamp at approximately 37 °C. Parasternal long axis (PSLAX) and short axis (SAX) images were recorded and then analyzed on a separate workstation with VevoLab software (Vevo 2100, v1.6, Visualsonic, Toronto, Canada). From the M-mode images, left ventricular cavity size for systole and diastole (LV dia;s, LV dia;d, LV Vol;s and LV Vol;d) were measured. Heart rate (HR), stroke volume (SV), and the echocardiographic calculation for fractional shortening (FS), ejection fraction (EF) and cardiac output (CO) were obtained using the Vevo software. Treatment and control groups were analyzed on the same day by the same technician in order to minimize variation. For VevoStrain analysis, B-mode images of 300 frames at greater than 200 frames/second were used.
The myocardial ischemia/reperfusion surgical protocol was applied as follows. Mice were anesthetized with 2% isoflurane inhalation until anesthesia was achieved. […] The mouse was then monitored during the recovery period, which was generally completed within 3 to 5 minutes. […]

[6] = tested on: KLF5; assay: KLF5 suppression, mRNA (quantitative real-time PCR) in cardiac tissue, I/R mice; assay type: in vivo, mouse (C57BL/6)
Experimental: as §1, §2

SMILES: CN(C(=O)CNC(=O)/C=C/c1cccc(Cl)c1)C1CCS(=O)(=O)CC1 [ML264]
- TNFα mRNA levels [1]: Significant suppression
- Glut1 levels (mRNA) [2]: trend towards reduced
- IL-6 mRNA levels [3]: Significant suppression
- Ugdh levels [4]: no effect
- ejection fraction (4 weeks) ([5]; 4 weeks reperfusion, two doses of ML264 at early reperfusion, vs IR vehicle): significant preservation
- ejection fraction ([5]; 24 h reperfusion, 25 mg/kg/12 h intraperitoneal, first dose 5 min before reopening of coronary artery, vs vehicle): significant preservation
- KLF5 mRNA levels (4 weeks) ([6]; 4 weeks post-ischemia-reperfusion, among the four groups): unchanged
- KLF5 mRNA expression level in cardiac tissue ([6]; 30 minutes of ischemia, ML264 25 mg/kg/12 h intraperitoneal): suppression was confirmed

— US20260335279A1, “METHODS OF TREATING ISCHEMIA-REPERFUSION INJURIES” (University of Cincinnati, priority 2022, published 2026)
